Test results: publication PMC10932284 (International Journal of Molecular Sciences, 2024)
Like-named read-outs stand apart in the source and are kept apart here.

Key:
[1] = tested on: M. tuberculosis strain resistant to both rifampicin and isoniazid; type: cell-based, Mycobacterium tuberculosis; conditions: for number of M. tuberculosis colonies/standard inoculum volume (0.2 mL): 28 days, 37 °C; for growth inhibition of mycobacteria (in words): both concentrations (1 and 2 µg/mL)
[2] = tested on: M. tuberculosis strain susceptible to rifampicin and resistant to isoniazid; type: cell-based, Mycobacterium tuberculosis; conditions: 28 days, 37 °C
[3] = 1 µg/mL in Lowenstein Jensen medium
[4] = 2 µg/mL in Lowenstein Jensen medium

SMILES	number of M. tuberculosis colonies/standard inoculum volume (0.2 mL) [1, 3] [colonies]	number of M. tuberculosis colonies/standard inoculum volume (0.2 mL) [1, 4] [colonies]	growth inhibition of mycobacteria (in words) [1]	number of M. tuberculosis colonies/standard inoculum volume (0.2 mL) [2, 3] [colonies]	number of M. tuberculosis colonies/standard inoculum volume (0.2 mL) [2, 4] [colonies]
O=C1Nc2ccccc2S(=O)(=O)N1 [2a]	0	0	inhibited	0	0
Cc1ccc2c(c1)S(=O)(=O)NC(=O)N2 [2c]	0	0	inhibited	0	0
Cc1cc(C)c2c(c1)S(=O)(=O)NC(=O)N2 [2d]	0	0	inhibited	0	0
O=C1Nc2ccc(F)cc2S(=O)(=O)N1 [2h]	0	0	inhibited	0	0
O=C1Nc2ccc(O)cc2S(=O)(=O)N1 [2t]	0	0	inhibited	–	0
CC(=O)Nc1nnc(S(N)(=O)=O)s1 [AAZ, acetazolamide, reference compound]	0	0	–	0	0
CC(=O)/N=c1/sc(S(N)(=O)=O)nn1C [MTZ, reference compound]	0	0	–	0	0
